# Reference: US20250049708A1, “A TOPICAL GEL FORMULATION FOR SKIN AND MOUTH DISORDERS AND A PROCESS OF PREPARATION THEREOF” (priority 2021, published 2025)
# Legend:
# Type in all cases: in vivo, male BALB/c mice
# oral mucositis = assay: anti-mucositis activity (mucositis score) in mice with 5-FU + tongue scratching induced oral mucositis; settings: score 0-5
# Method: (§1) The in vivo pharmacological assessment of anti-mucositis activity of the topical or oromucosal gel formulation in male BALB/c mice was performed. The study protocol involves six BALB/c mice namely vehicle, 5-Fluorouracil (FU) group, 5 FU-group+Scratching, FU-group+Scratching, FU-group+Scratching+100 ug gel and FU-group+Scratching+30 ug respectively were maintained under specific pathogen-free conditions. The mice were 6-8 weeks of age and weighed 25-30 g. All animal experimental procedures were performed in accordance with the Institutional Animal Ethics Committee (IAEC) guidelines along with approval from IAEC.
# The activity of misoprostol of the topical or oromucosal gel formulation was analyzed for anti-mucositis in mice. The anti-mucositis activity is analyzed based on the mucositis score. The scoring parameters for anti-mucositis activity include erythema, vasodilation, erosion, bleeding, fibrosis, and ulcers.
# A scoring method is adopted for oral mucositis induced by radiation and chemotherapy. The scoring evaluates the relationship between dosage, delivery method and complications. The Scoring systems are useful in assessing the impact of therapy on patient. […]
# FIG. 5 illustrates the effect of topical or oromucosal gel formulation in mice with oral mucositis. The mucositis score was evaluated for 6 groups of mice (G1-G6) over a period of 15 days.
# IL-6 = assay: tongue and serum IL-6 levels in mice with oral mucositis (mouse IL-6 ELISA kit); settings: 5-FU + scratch mice
# Method: as §1
# (§2) The anti-mucositis study protocol involves mice that are intraperitoneally administered with 5-FU at 100 mg/kg on day 0. The scratching group of mice was anesthetized with isoflurane and an area of 0.5 cm^2 of the tongue was scratched using the tip of an 18-gauge needle at an equal force and depth on days 7 and 8. […]
# (§3) The levels of biomarkers such as IL-6 and TNF-α were analyzed in mice upon treatment with topical or oromucosal gel formulation. The concentrations of these biomarkers in serum and tongue were analyzed using standard ELISA kits.
# The tongue and serum concentrations of IL-6 were analyzed in mice with oral mucositis upon treatment with topical or oromucosal gel formulation. The concentrations of IL-6 in tongue and serum were analyzed using mouse IL-6 ELISA kit.
# TNF-α = assay: tongue and serum TNF-α levels in mice with oral mucositis (mouse TNF-α ELISA kit); settings: 5-FU + scratch mice
# Method: as §1, §2, §3
# The tongue and serum concentrations of TNF-α were analyzed in mice with oral mucositis upon treatment with topical or oromucosal gel formulation. The concentrations of TNF-α in tongue and serum were analyzed using mouse TNF-α ELISA kit.
# [1] = body weights of mice with oral mucositis over 15 days; settings: 5-FU + scratch mice; period of 15 days
# Method: as §1
# The anti-mucositis study protocol involves mice that are intraperitoneally administered with 5-FU at 100 mg/kg on day 0. The scratching group of mice was anesthetized with isoflurane and an area of 0.5 cm^2 of the tongue was scratched using the tip of an 18-gauge needle at an equal force and depth on days 7 and 8. The scratching was blinded to the treatment groups. Dexamethasone was administered orally at 1 mg/kg/day from on day 7.
# The body weights of mice with oral mucositis upon treatment with topical or oromucosal gel formulation were analyzed for a period of 15 days.
structure (smiles),measurement,setting,value
C[C@@H]1C[C@H]2[C@@H]3CCC4=CC(=O)C=C[C@]4(C)[C@@]3(F)[C@@H](O)C[C@]2(C)[C@@]1(O)C(=O)CO [Dexamethasone],mucositis score reached in the increase phase,"oral mucositis; 5-FU 100 mg/kg i.p. day 0 + tongue scratch days 7 and 8, increase till day 8",3
same,mucositis score after decrease over the remaining days,"oral mucositis; 5-FU + scratch, end of 15 day period",1
same,serum IL-6 mean concentration,IL-6; serum,6.91
same,tongue IL-6 mean concentration,IL-6; tongue,44.20
same,serum TNF-α mean concentration,TNF-α; serum,3.32
same,tongue TNF-α mean concentration,TNF-α; tongue,20.07
same,body weight course,[1],decrease in weight for 8 days and gradually increases over the remaining 7 days
